Each molecule was assayed against autotaxin (Homo sapiens, UniProt Q13822) (assay: Autotaxin inhibitor screening assay (phosphodiesterase activity, p-nitrophenol cleaved from bis-(p-nitrophenyl) phosphate, absorbance 410 nm)). Details: pH 9, compound at 30 μM; BNPP 3 mM, pH 9.0, 37° C., 30 minutes; read-out: Inhibition.
Assay type: biochemical
Description: As described above, the compounds in the present disclosure have the effect of inhibiting the activity of autotaxin, and can be used as autotaxin inhibitors. One method for inhibiting activity of autotaxin in environment is administering to the environment an effective amount of the compound of Formula (I). Please refer to the following experiment, the phosphodiesterase activity of autotaxin was measured using the p-nitrophenol that is a yellow product cleaved by autotaxin from the bis-(p-nitrophenyl) phosphate. Compound samples (10 μl) were incubated with autotaxin (10 μl) in a final volume of 200 μl assay buffer (5 mM CaCl2, 50 mM Tris-HCl, pH 9.0) containing bis-(p-nitrophenyl) phosphate (BNPP) at a final concentration of 3 mM at 37° C. After 30 minutes, absorbance at 410 nm of the reacted solution was measured. The percent inhibition for each test article (TA) (compound) was determined using the following equation. % Inhibition=(O.D.vehicle−O.D.TA)/O.D.vehicle×100

SMILES | inhibition at 30 µM [%]
O=C(O)c1ccc(/C=C2\CCc3c(OCc4cc(F)c(F)cc4F)cccc3C2=O)cc1 [Compound 46] | 50 to 80
CONC(=O)c1ccc(COc2ccc3c(c2)C/C(=C\c2cc(Cl)cc(Cl)c2)C3=O)cc1 [Compound 127] | 50 to 80
O=C(O)c1ccc(COc2ccc3c(c2)C/C(=C\c2cc(Cl)cc(C(F)(F)F)c2)C3=O)cc1 [Compound 129] | 50 to 80
O=C(O)c1ccc(/C=C2\Cc3cc(OCc4cc(F)c(F)cc4F)ccc3C2=O)cc1 [Compound 10] | < 50
O=C(O)c1ccc(COc2ccc3c(c2)C/C(=C\c2ccc(Cl)cc2Cl)C3=O)cc1 [Compound 19] | > 80
O=C1/C(=C/c2ccc(OCCOc3ccc(F)cc3F)cc2)CCc2cc(O)ccc21 [Compound 101] | < 50

Source: patent publication US11091421B2, “Benzene fused heterocyclic derivative and pharmaceutical composition comprising the same” (TAIWANJ PHARMACEUTICALS CO., LTD., priority 2017, dated 2021)
